Here are results for one molecule from US10655144B2, “Nucleic acid construct with a p16 promoter that causes a prodrug converting enzyme to be expressed specifically in senescent cells” (Buck Institute for Research on Aging, priority 2012, dated 2020).

The subject of experiment [1] is senescent cells. The experiment can be described thus: Lifespan of wild type INK-ATTAC transgenic mice with senescent cells removed by weekly AP20187. It is filed as in vivo. As to conditions: weekly treatment from 10-12 weeks of age; PBS control 21 months; FIG. 4. The method, then: (§1) Clearance of therapy-induced senescent cells improves age-sensitive traits and other health parameters in aged animals. […] INK-ATTAC transgenic animals from each of lineage 3 (TG3) and lineage 5 (TG5) were used in the experiments (see Baker et al., Nature, supra). INK-ATTAC transgenic mice were aged 10-12 weeks, and then cohorts of animals were treated with AP20187 or PBS (control) on a weekly basis from the start of treatment.

Experiment [2] deals with senescent cells. The experiment can be described thus: Measures of health at 18 months of age (weight, fat mass, treadmill activity) in AP20187-treated INK-ATTAC mice. It is filed as in vivo, INK-ATTAC transgenic mice. The method, then:
as §1
(§2) When the animals reached 18 months of age, several measures of health and lifespan were taken. Weight, fat mass, activity measurements (treadmill exercise tests to measure distance traveled and duration of exercise) were compared between untreated female mice (n=16) and AP20187-treated female mice (n=21), and compared between untreated male mice (n=19) and AP20187-treated male mice (n=21). Fat mass was greater in both treated females and males compared with the untreated groups (see FIG. 5). […] Treated and untreated mice (5-6 per group) were sacrificed, and adipose cell (AC) diameter, gastrocnemius muscle fiber diameter (μm), abdominal muscle fiber diameter (μm), dermal thickness (μm), subdermal adipose thickness (μm), cardiac performance (introduction of isoproterenol as an exogenous stress in animals prior to sacrifice), and extent of glomerulosclerosis were determined. Treated animals had greater adipose cell diameter (see FIG. 6); better cardiac performance (FIG. 7); and had less sclerotic glomeruli (see FIG. 8) than untreated animals. […] Removal of senescent cells in AP20187-treated animals prevented loss of adipose tissue, prevented loss of cardiac performance, and reduced the extent of glomerulosclerosis.

The subject of experiment [3] is senescent cells. The experiment can be described thus: Tissue and organ analyses after sacrifice (adipose cell diameter, muscle fiber diameter, skin thickness, cardiac performance, glomerulosclerosis) in AP20187-treated INK-ATTAC mice. As to conditions: treated vs untreated. It is filed as in vivo, INK-ATTAC transgenic mice. As to the method:
as §1, §2

The structures appear in SMILES notation.

`CC[C@H](C(=O)N1CCCC[C@H]1C(=O)O[C@H](CCc1ccc(OC)c(OC)c1)c1cccc(OCC(=O)NCC(CNC(=O)COc2cccc([C@@H](CCc3ccc(OC)c(OC)c3)OC(=O)[C@@H]3CCCCN3C(=O)[C@@H](CC)c3cc(OC)c(OC)c(OC)c3)c2)CN(C)C)c1)c1cc(OC)c(OC)c(OC)c1` [AP20187]: the average lifespan entry in the experiment on senescent cells [1] is “approximately 26 months”. The fat mass entry in the experiment on senescent cells [2] (treated females and males each vs untreated group of same sex, FIG. 5) is on record as “greater”. In the experiment on senescent cells [2] (treated vs untreated animals), the “activity measurements (treadmill exercise tests: distance traveled and duration of exercise)” value was “No statistically significant differences”; the weight entry is given as “No statistically significant differences”. Also, the cardiac performance entry in the experiment on senescent cells [3] (isoproterenol as exogenous stress prior to sacrifice, FIG. 7) is on record as “better”. Besides, the “adipose cell (AC) diameter” value in the experiment with senescent cells [3] (sacrificed mice, 5-6 per group, FIG. 6) was “greater”. Besides, in the experiment on senescent cells [3] (sacrificed mice), the “abdominal muscle fiber diameter” value is on record as “No significant differences”, the dermal thickness result is listed as “No significant differences”, the “gastrocnemius muscle fiber diameter” value is given as “No significant differences” and the subdermal adipose thickness entry is on record as “No significant differences”. Also, the “extent of glomerulosclerosis (sclerotic glomeruli)” value with senescent cells [3] (sacrificed mice, FIG. 8) is “less”.
